The text below walks through data of US11912668B2, “GCN2 and perk kinase inhibitors and methods of use thereof” (Deciphera Pharmaceuticals, LLC, priority 2020, dated 2024).

Where only a bound is given, the exact number is not on record here.

For one assay, the target named is GCN2 kinase (Homo sapiens (Human), UniProt Q9P2K8). Kind of assay: Biochemical assay for GCN2 (TR-FRET kinase activity assay). The settings on record: 1 mM ATP, 3-hour incubation. The essentials:
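TR-FRET assay with 2 nM GCN2, 130 nM GFP-eIF2α substrate, 0.2 mg/mL E. coli tRNA and 1 mM ATP; compounds (0.5% DMSO) reacted 3 h. Stopped with 20 mM EDTA plus 2 nM Tb-anti-peIF2α (pSer52), 60 min RT; 520/490 ratio converted to % inhibition, IC50 from four-parameter fit.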
For orientation: TR-FRET usually uses a lanthanide donor and a delayed reading to cut background.

The next assay deals with PERK kinase (Homo sapiens (Human), UniProt Q9NZJ5). Kind of assay: Biochemical assay for PERK (coupled pyruvate kinase/lactate dehydrogenase assay). Conditions: 1 mM ATP, rate from 2-3 h time frame. A digest of the protocol: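 Coupled pyruvate kinase/lactate dehydrogenase readout of ATP hydrolysis via NADH oxidation (A340), 10 nM PERK, 0.25 mg/mL myelin basic protein, 1 mM ATP, pH 7.5 Tris/MgCl2 buffer, 1% DMSO. Absorbance followed 6 h at 30° C; rate from the 2-3 h window, normalised to no-compound and known-inhibitor controls, IC50 fitted.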

The test system of another assay is CCRF-CEM leukemia cells. Kind of assay: CCRF-CEM ASNase cell proliferation assay, phenotypic assay for cellular inhibition of GCN2. The settings on record: Homo sapiens; ASNase treated CCRF-CEM cells, 1 mU/mL ASNase, 72 h. Format: cell-based. The essentials:
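Cells were seeded at ten thousand per well in RPMI-1640 with 10% heat-inactivated FBS and treated in triplicate with serially diluted compound plus 1 mU/mL ASNase for 72 h at 37 °C, 5% CO2. Resazurin was then added for 6 h, with fluorescence read at ex 540/em 600 nm to derive IC50 values.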

Assay [1] relates to phospho-GCN2 (Thr899) in HCT116 colorectal cancer cells. Kind of assay: HCT116 amino acid starved (-AA) phospho-GCN2 assay (Western blot). Format: cell-based. The settings on record: Homo sapiens, HCT-116, 4 h, read-out: HCT116-AA pGCN2 Western Blot. A digest of the protocol:
(§1)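 HCT116 cells switched to amino-acid-free EBSS (10% dialyzed FBS, 5.5 mM glucose, vitamins) with serial compound dilutions for 4 h at 37° C. Lysates Western blotted for phospho-GCN2 (Thr899), total GCN2, ATF4 and beta-actin; IC50 values derived from quantified bands.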
For orientation: Immunoblotting shows a protein as a band on a membrane.

Assay [2] has as its system ATF4 in HCT116 colorectal cancer cells. Kind of assay: HCT116 amino acid starved (-AA) ATF4 assay (Western blot). The settings on record: Homo sapiens, HCT-116, 4 h. Format: cell-based. The essentials:
as §1

Assay [3] concerns ATF4 in CCRF-CEM leukemia cells (PERK). Kind of assay: CCRF-CEM TG ATF4 ELISA, phenotypic assay for cellular inhibition of PERK preactivated by thapsigargin. Format: cell-based. The settings on record: Homo sapiens; Thapsigargin (1 μM) stimulated CCRF-CEM cells.
Assay [4] has as its system ATF4 in H929 multiple myeloma cells. Kind of assay: H929 ATF4 ELISA assay (stimulation of cellular ATF4). It is filed as cell-based. Conditions: 4 h, no thapsigargin. The protocol:
H929 multiple myeloma cells (catalog #CRL-9068) were obtained from the American Type Culture Collection (ATTC, Manassas, VA). Briefly, cells were grown in RPMI-1640 medium supplemented with 20% heat-inactivated fetal bovine serum (catalog #A3840002, ThermoFisher Scientific, Waltham, MA), 1% Penicillin/Streptomycin/L-Glutamine (catalog #10378016, ThermoFisher Scientific, Waltham, MA), and 0.05 mM 2-mercaptoethanol (catalog #21985-023, ThermoFisher Scientific, Waltham, MA) at 37° C., 5% CO2, and 95% humidity. Cells were expanded until reaching one million five hundred thousand cells per mL at which time they were subcultured or harvested for assay use. One million five hundred thousand cells per well in 1 mL complete growth medium were dispensed into 12-well plates and incubated overnight. A serial dilution of test compound was added, and cells were incubated at 37° C., 5% CO2, and 95% for four hours. Cells were lysed then ATF4 levels were measured using an ELISA assay (Proteintech, Rosemont, IL). Absorbance is measured at 450 nm and 544 nM using a Synergy2 or equivalent reader (Biotek, Winooski VT). Data were analyzed using PRISM software (Graphpad, San Diego, CA) to calculate fold stimulation of cellular ATF4 relative to vehicle treated control.

Chain of PERK kinase (Q9NZJ5 other isoform, or with tags, fused parts or gaps): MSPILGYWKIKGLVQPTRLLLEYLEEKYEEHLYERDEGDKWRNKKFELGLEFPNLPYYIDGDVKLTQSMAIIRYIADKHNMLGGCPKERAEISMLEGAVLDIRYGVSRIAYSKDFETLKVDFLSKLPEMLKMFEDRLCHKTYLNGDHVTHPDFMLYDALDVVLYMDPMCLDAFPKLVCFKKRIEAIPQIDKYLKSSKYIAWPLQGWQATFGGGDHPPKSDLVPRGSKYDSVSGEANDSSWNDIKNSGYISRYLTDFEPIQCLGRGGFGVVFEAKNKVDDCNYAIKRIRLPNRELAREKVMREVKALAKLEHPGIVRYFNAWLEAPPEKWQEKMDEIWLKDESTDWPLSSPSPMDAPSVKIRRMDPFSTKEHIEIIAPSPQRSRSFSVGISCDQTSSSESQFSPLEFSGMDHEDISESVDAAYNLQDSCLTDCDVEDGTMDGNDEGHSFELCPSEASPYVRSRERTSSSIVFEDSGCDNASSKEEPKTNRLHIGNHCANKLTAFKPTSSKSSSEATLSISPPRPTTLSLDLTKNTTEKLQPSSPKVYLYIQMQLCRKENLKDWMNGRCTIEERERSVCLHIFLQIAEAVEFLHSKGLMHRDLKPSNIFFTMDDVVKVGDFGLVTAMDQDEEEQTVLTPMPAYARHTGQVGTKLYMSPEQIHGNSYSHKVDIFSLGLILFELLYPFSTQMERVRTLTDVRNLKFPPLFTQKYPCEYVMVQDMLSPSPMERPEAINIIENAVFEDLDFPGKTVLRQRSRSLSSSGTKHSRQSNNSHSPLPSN
Chain of GCN2 kinase (Q9P2K8 whole entry): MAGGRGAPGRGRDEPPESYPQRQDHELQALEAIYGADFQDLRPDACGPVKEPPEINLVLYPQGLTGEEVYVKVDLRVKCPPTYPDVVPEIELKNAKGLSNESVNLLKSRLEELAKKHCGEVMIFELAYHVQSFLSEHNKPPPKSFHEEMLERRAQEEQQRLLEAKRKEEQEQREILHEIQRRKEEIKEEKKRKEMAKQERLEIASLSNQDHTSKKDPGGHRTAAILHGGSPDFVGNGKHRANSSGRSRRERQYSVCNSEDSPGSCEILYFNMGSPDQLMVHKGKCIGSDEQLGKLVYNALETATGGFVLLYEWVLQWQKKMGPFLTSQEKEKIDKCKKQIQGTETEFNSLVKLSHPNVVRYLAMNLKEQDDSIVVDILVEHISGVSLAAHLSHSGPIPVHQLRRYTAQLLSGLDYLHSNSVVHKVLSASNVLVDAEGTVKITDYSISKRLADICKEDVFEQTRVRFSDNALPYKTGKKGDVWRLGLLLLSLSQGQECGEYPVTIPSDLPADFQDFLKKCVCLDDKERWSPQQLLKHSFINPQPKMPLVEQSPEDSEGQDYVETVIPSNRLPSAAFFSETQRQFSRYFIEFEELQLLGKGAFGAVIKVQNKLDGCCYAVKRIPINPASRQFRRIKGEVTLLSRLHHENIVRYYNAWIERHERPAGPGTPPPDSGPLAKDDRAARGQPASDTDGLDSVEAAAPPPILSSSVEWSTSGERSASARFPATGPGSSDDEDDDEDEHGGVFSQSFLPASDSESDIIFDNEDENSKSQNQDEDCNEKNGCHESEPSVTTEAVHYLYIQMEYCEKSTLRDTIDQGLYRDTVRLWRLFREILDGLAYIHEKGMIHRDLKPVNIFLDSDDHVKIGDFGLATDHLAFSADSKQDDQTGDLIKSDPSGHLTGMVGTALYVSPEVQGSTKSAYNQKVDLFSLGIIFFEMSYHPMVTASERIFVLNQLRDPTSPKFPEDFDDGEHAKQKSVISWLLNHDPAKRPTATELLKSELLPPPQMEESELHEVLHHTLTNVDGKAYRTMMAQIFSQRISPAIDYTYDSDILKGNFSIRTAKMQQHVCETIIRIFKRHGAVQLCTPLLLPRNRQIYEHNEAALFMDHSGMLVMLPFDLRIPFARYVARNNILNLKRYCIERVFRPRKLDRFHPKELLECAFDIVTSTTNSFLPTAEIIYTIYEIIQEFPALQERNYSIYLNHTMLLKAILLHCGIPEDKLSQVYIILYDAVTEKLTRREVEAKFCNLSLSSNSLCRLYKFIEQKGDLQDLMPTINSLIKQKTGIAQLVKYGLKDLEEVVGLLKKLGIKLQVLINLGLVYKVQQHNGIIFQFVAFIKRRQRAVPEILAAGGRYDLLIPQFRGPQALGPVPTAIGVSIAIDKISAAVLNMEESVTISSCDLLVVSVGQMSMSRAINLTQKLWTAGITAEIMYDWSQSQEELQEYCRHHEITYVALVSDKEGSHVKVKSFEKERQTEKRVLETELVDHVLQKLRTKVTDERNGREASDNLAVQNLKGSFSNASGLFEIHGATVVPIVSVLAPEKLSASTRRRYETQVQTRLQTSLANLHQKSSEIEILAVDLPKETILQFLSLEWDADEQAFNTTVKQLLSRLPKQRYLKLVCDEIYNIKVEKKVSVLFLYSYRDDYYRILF

In the case of `CNc1cc2nc(C)c(-c3cc(F)cc(NS(=O)(=O)c4cc(Cl)cc(CO)c4Cl)c3)cc2cn1` [Example 25], the IC50 was no more than 100 nM on GCN2 kinase; no more than 100 nM at PERK kinase; no more than 100 nM in the assay on CCRF-CEM leukemia cells; no more than 100 nM in assay [1]; no more than 100 nM in assay [2]; 1000 to 10000 nM in assay [3]. Also, the “H929 NS ATF4 ELISA (fold stimulation of ATF4 relative to vehicle)” value in assay [4] was “++ (“++” refers to an ATF4 stim greater than 5 fold and less than or equal to 10 fold)”.

Take `CNc1cc2nc(C)c(-c3cccc(NS(=O)(=O)c4cc(Cl)cnc4OC)c3F)cc2cn1` [Example 31]: the IC50 is no more than 100 nM against GCN2 kinase; no more than 100 nM against PERK kinase; no more than 100 nM in the assay with CCRF-CEM leukemia cells; no more than 100 nM in assay [1]; no more than 100 nM in assay [2]; 1000 to 10000 nM in assay [3]. In addition, the “H929 NS ATF4 ELISA (fold stimulation of ATF4 relative to vehicle)” value in assay [4] was “++ (“++” refers to an ATF4 stim greater than 5 fold and less than or equal to 10 fold)”.

Consider `CNc1ncc2cc(-c3cc(NS(=O)(=O)c4cc(Cl)cnc4OC)cc(F)c3F)c(NC)nc2n1` [Example 49], for which the IC50 against GCN2 kinase was no more than 100 nM; against PERK kinase it was 100 to 500 nM; with CCRF-CEM leukemia cells, no more than 100 nM; in assay [1] it was no more than 100 nM; in assay [2] it was 100 to 500 nM; in assay [3], 1000 to 10000 nM. Besides, the “H929 NS ATF4 ELISA (fold stimulation of ATF4 relative to vehicle)” value in assay [4] is given as “+ (“+” refers to an ATF4 stim less than or equal to 5-fold)”.

With `CNc1nc2nc(N)ncc2cc1-c1cccc(NS(=O)(=O)c2cc(Cl)cnc2OC)c1F` [Example 109, N-(3-(2-amino-7-(methylamino)pyrido[2,3-d]pyrimidin-6-yl)-2-fluorophenyl)-5-chloro-2-methoxypyridine-3-sulfonamide], the IC50 is no more than 100 nM against GCN2 kinase; 100 to 500 nM against PERK kinase; no more than 100 nM with CCRF-CEM leukemia cells; no more than 100 nM in assay [1]; no more than 100 nM in assay [2]; 500 to 1000 nM in assay [3]. Moreover, in assay [4], the “H929 NS ATF4 ELISA (fold stimulation of ATF4 relative to vehicle)” value is “+++ (“+++” refers to an ATF4 stim greater than 10 fold and less than or equal to 20 fold)”.

`CNc1nc2nc(Nc3cnn(C)c3)ncc2cc1-c1cccc(NS(=O)(=O)c2cc(Cl)cnc2OC)c1F` [Example 110]: the IC50 against GCN2 kinase is no more than 100 nM; at PERK kinase, no more than 100 nM; in the assay with CCRF-CEM leukemia cells, no more than 100 nM; in assay [1], no more than 100 nM; in assay [2], no more than 100 nM; in assay [3] it was 100 to 500 nM. Besides, the “H929 NS ATF4 ELISA (fold stimulation of ATF4 relative to vehicle)” value in assay [4] was “++ (“++” refers to an ATF4 stim greater than 5 fold and less than or equal to 10 fold)”.

`CNc1cc2nc(N)c(-c3cccc(NS(=O)(=O)c4cc(Cl)cnc4OC)c3F)cc2cn1` [Example 128]: the IC50 (against GCN2 kinase; on PERK kinase; in the assay on CCRF-CEM leukemia cells; in assay [1]; in assay [2]; in assay [3]) was no more than 100 nM throughout. Moreover, the “H929 NS ATF4 ELISA (fold stimulation of ATF4 relative to vehicle)” value in assay [4] is “+++ (“+++” refers to an ATF4 stim greater than 10 fold and less than or equal to 20 fold)”.

In the case of `CNc1ncc2cc(-c3cccc(NS(=O)(=O)c4cccc(CO)c4Cl)c3F)c(NC)nc2n1` [Example 151], the IC50 at GCN2 kinase was no more than 100 nM; at PERK kinase it was 100 to 500 nM; in the assay with CCRF-CEM leukemia cells it was no more than 100 nM; in assay [1], no more than 100 nM; in assay [2] it was no more than 100 nM; in assay [3] it was 100 to 500 nM. Moreover, in assay [4], the “H929 NS ATF4 ELISA (fold stimulation of ATF4 relative to vehicle)” value was “++ (“++” refers to an ATF4 stim greater than 5 fold and less than or equal to 10 fold)”.
